Results taken from PMC11477000, “Enantioselective Binding of Proton Pump Inhibitors to Alpha1-Acid Glycoprotein and Human Serum Albumin—A Chromatographic, Spectroscopic, and In Silico Study” (International Journal of Molecular Sciences, 2024).
Values joined by “and” are separate entries in the source; they are usually repeats but may differ in a detail not shown here. Identical values can stand only once.

How the values were obtained:
[1] = tested on: α1-acid glycoprotein (AGP); test: HPLC on AGP-based chiral stationary phase (ChromTech Chiral-AGP column); assay type: binding, human; conditions: 10 mM pH 7 phosphate buffer, 25 °C
Procedure: HPLC using a protein-based chiral stationary phase is a fully automated method for obtaining rapid information about the binding of compounds to the respective proteins. Enantioseparation occurs in the case of unequal binding constants of the individual enantiomers to the immobilized proteins, thus allowing enantioselective binding to be characterized even when a racemic mixture was injected. As a preliminary step, the enantiospecific binding was investigated on columns containing AGP and HSA in various alcohol:buffer mixtures. A pH 7 phosphate buffer was employed as the aqueous part of the mobile phase, while for the organic part, three different alcohols were evaluated. […]
(§1) Chromatographic measurements were carried out on two separate HPLC systems. The AGP binding study was performed on a Waters 2695e chromatographic system paired with a Waters 2996 PDA detector, controlled by Empower 3 FR5 (Waters Corp., Milford, MA, USA), while the HSA binding study was performed on an Agilent 1100 HPLC system, consisting of an inline degasser (G1322A), a quaternary pump (G1311A), an automatic injector (G1329A) paired with sample thermostat (G1330A), a column thermostat (G1316A), and a diode array detector (G1315A) with Agilent Chemstation B04.03-SP2 software (Agilent, Bronnwald, Germany). For the binding studies, two protein-based chiral stationary phases were utilized. The chromatographic binding study for AGP was conducted on a ChromTech Chiral-AGP column (150 mm × 4.0 mm; ChromTech Ltd., Congleton, UK), while the binding study for HSA was performed on a Daicel Chiralpak HSA column (50 mm × 4.0 mm; Daicel Corp., Osaka, Japan). The detection wavelength was 210 nm for all measurements. The stock solutions of PPIs were prepared at a concentration of 1 mg/mL in MeOH. Subsequent dilutions were prepared using water. The injected samples were mixed and diluted from the stock solutions. The final concentration for the eutomer was 0.2 mg/mL, and for the distomer, it was 0.1 mg/mL. A volume of 2 μL was injected. To mitigate the instability of PPIs in aqueous solutions, the samples were kept at a temperature of 4 °C.

[2] = tested on: α1-acid glycoprotein (AGP); test: Bound percentage by HPLC on AGP column, extrapolation to zero organic modifier; assay type: in vitro ADME, human; conditions: for Bound percentage (b%), average: average of IPA, EtOH, MeOH
Procedure: Chromatographic columns containing proteins can be used to determine the percentage of drug binding. A plot of the natural logarithm of the retention factors against the proportion of organic modifiers was created. […] The intercept of these linear equations can be used to calculate the bound percentage according to Equation (4) (see in Section 3.2).
as §1, with “°C. […] After 24 h, new samples were prepared for injection. Chromatographic parameters were calculated based on the following equations. The retention factor (k) was calculated as:(1) k=(tr−t0)/t0 where tr is the retention time of the investigated analyte, and t0 is the dead time, determined as the first peak appearance in the chromatogram. Resolution was calculated based on the following equation:(2) Rs=2(t2−t1)/(w1+w2) where t2 and t1 are the retention times of the second and first eluted enantiomers, respectively, while w is the peak width. The separation factor (α) was calculated as follows:(3) α=k2/k1 where k1 and k2 are the retention factors of the first- and second-eluting enantiomers, respectively. The k values were also used to calculate the protein-bound percentage (b%) using Equation (4):(4) b%=k/1+k×100” for “°C.”

[3] = extrapolation to zero percent EtOH
[4] = extrapolation to zero percent IPA
[5] = extrapolation to zero percent MeOH

| SMILES | k1 retention factor (first-eluting enantiomer) ([1]; 2.5% IPA) | k2 retention factor (second-eluting enantiomer) ([1]; 2.5% IPA) | k1 retention factor (first-eluting enantiomer) ([1]; 5% EtOH) | k2 retention factor (second-eluting enantiomer) ([1]; 5% EtOH) | k1 retention factor (first-eluting enantiomer) ([1]; 5% IPA) | k2 retention factor (second-eluting enantiomer) ([1]; 5% IPA) | k1 retention factor (first-eluting enantiomer) ([1]; 5% MeOH) | k2 retention factor (second-eluting enantiomer) ([1]; 5% MeOH) | k1 retention factor (first-eluting enantiomer) ([1]; 7.5% EtOH) | k2 retention factor (second-eluting enantiomer) ([1]; 7.5% EtOH) | k2 retention factor (second-eluting enantiomer) ([1]; 7.5% IPA) | k1 retention factor (first-eluting enantiomer) ([1]; 7.5% MeOH) | k2 retention factor (second-eluting enantiomer) ([1]; 7.5% MeOH) | k1 retention factor (first-eluting enantiomer) ([1]; 10% EtOH) | k2 retention factor (second-eluting enantiomer) ([1]; 10% EtOH) | k1 retention factor (first-eluting enantiomer) ([1]; 10% IPA) | k2 retention factor (second-eluting enantiomer) ([1]; 10% IPA) | k1 retention factor (first-eluting enantiomer) ([1]; 10% MeOH) | k2 retention factor (second-eluting enantiomer) ([1]; 10% MeOH) | k1 retention factor (first-eluting enantiomer) ([1]; 12.5% IPA) | further results |
| --- | --- | --- | --- | --- | --- | --- | --- | --- | --- | --- | --- | --- | --- | --- | --- | --- | --- | --- | --- | --- | --- |
| COCCCOc1ccnc(C[S+]([O-])c2nc3ccccc3[nH]2)c1C (stereo not shown) [Rabeprazole, rabeprazole] | 14.89 | 21.66 | 13.04 | 20.84 | 6.68 | 7.89 | 20.89 | 42.82 | 7.21 | 10.50 | 3.90 | 12.90 | 26.14 | 4.39 | 5.89 | 2.47 | 2.47 | 8.63 | 16.71 | 1.72 | k2 retention factor (second-eluting enantiomer) ([1]; 12.5% IPA): 1.72; k1 retention factor (first-eluting enantiomer) ([1]; 15% EtOH): 2.11; k2 retention factor (second-eluting enantiomer) ([1]; 15% EtOH): 2.48; k1 retention factor (first-eluting enantiomer) ([1]; 15% IPA): 1.27; k2 retention factor (second-eluting enantiomer) ([1]; 15% IPA): 1.27; k1 retention factor (first-eluting enantiomer) ([1]; 15% MeOH): 5.97; k2 retention factor (second-eluting enantiomer) ([1]; 15% MeOH): 11.00 |
| Cc1c(OCC(F)(F)F)ccnc1C[S@@+]([O-])c1nc2ccccc2[nH]1 [R-lansoprazole, dexlansoprazole] | – | – | – | – | – | – | – | – | – | – | – | – | – | – | – | – | – | – | – | – | Bound percentage (b%), average [2]: 97.56% and 97.56 ± 1.39%; Bound percentage (b%) [2, 3]: 97.60%; Bound percentage (b%) [2, 4]: 98.93%; Bound percentage (b%) [2, 5]: 96.16% |
| Cc1c(OCC(F)(F)F)ccnc1C[S+]([O-])c1nc2ccccc2[nH]1 (stereo not shown) [Lansoprazole, lansoprazole] | 15.75 | 19.61 | 14.52 | 18.43 | 6.88 | 9.12 | 22.63 | 28.55 | 8.24 | 10.64 | 5.28 | 14.63 | 18.79 | 5.13 | 6.62 | 2.67 | 3.47 | 9.96 | 12.56 | 1.95 | k1 retention factor (first-eluting enantiomer) ([1]; 7.5% IPA): 4.00; k2 retention factor (second-eluting enantiomer) ([1]; 12.5% IPA): 2.47; k1 retention factor (first-eluting enantiomer) ([1]; 15% EtOH): 2.54; k2 retention factor (second-eluting enantiomer) ([1]; 15% EtOH): 3.21; k1 retention factor (first-eluting enantiomer) ([1]; 15% IPA): 1.48; k2 retention factor (second-eluting enantiomer) ([1]; 15% IPA): 1.83; k1 retention factor (first-eluting enantiomer) ([1]; 15% MeOH): 7.02; k2 retention factor (second-eluting enantiomer) ([1]; 15% MeOH): 8.75 |
| Cc1c(OCC(F)(F)F)ccnc1C[S@+]([O-])c1nc2ccccc2[nH]1 [S-lansoprazole] | – | – | – | – | – | – | – | – | – | – | – | – | – | – | – | – | – | – | – | – | Bound percentage (b%), average [2]: 96.86% and 96.86 ± 1.79%; Bound percentage (b%) [2, 3]: 96.92%; Bound percentage (b%) [2, 4]: 98.62%; Bound percentage (b%) [2, 5]: 95.04% |
| COc1ccc2[nH]c([S+]([O-])Cc3ncc(C)c(OC)c3C)nc2c1 (stereo not shown) [Omeprazole, omeprazole] | 13.24 | 16.18 | 12.69 | 15.14 | 5.46 | 5.46 | 25.74 | 37.33 | 6.57 | 7.20 | 2.88 | 15.56 | 21.41 | 4.02 | 4.02 | 1.87 | 1.87 | 9.95 | 13.05 | 1.33 | k1 retention factor (first-eluting enantiomer) ([1]; 7.5% IPA): 2.88; k2 retention factor (second-eluting enantiomer) ([1]; 12.5% IPA): 1.33; k1 retention factor (first-eluting enantiomer) ([1]; 15% EtOH): 1.81; k2 retention factor (second-eluting enantiomer) ([1]; 15% EtOH): 1.81; k1 retention factor (first-eluting enantiomer) ([1]; 15% IPA): 1.01; k2 retention factor (second-eluting enantiomer) ([1]; 15% IPA): 1.01; k1 retention factor (first-eluting enantiomer) ([1]; 15% MeOH): 6.70; k2 retention factor (second-eluting enantiomer) ([1]; 15% MeOH): 8.43 |
